In patent US20200000755A1, “TREATMENT OF INFLAMMATORY DISORDERS IN NON-HUMAN MAMMALS” (THE REGENTS OF THE UNIVERSITY OF CALIFORNIA, priority 2012, published 2020):

Key:
Sheep sEH = Sheep sEH (Ovis aries, UniProt A0ACI6PZ20); experiment: sEH inhibitor screen of domestic animals, radioactive assay, liver cytosolic preparation; format: biochemical
Canine sEH = molecular target: T1, Canine sEH (Canis lupus familiaris, UniProt A0A8I3NJL8); experiment: sEH inhibitor screen of canine sEH; format: biochemical
T1 sequence (A0A8I3NJL8 1-556): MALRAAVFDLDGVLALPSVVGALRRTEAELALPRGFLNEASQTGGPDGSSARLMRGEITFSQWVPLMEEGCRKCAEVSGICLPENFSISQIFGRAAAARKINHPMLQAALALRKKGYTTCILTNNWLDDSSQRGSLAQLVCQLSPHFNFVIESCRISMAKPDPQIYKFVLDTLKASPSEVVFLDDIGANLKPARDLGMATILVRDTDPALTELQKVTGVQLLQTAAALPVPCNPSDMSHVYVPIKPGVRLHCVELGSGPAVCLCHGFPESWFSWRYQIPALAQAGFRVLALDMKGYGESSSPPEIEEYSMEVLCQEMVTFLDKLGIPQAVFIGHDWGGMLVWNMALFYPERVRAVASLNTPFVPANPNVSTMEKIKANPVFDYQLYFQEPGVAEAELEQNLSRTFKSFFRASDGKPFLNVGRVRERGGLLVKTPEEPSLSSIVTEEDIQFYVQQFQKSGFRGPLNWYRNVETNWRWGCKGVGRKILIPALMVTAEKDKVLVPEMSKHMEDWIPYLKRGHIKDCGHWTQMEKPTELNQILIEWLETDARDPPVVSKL

COX-1 and COX-2 = settings: cited from earlier work
[1] = Thoroughbred, horse, in vivo, iv, 0.1 mg/kg
[2] = horse, in vivo, iv, 0.1 mg/kg, 5 days
[3] = Plasma concentrations and pharmacokinetics in the laminitic horse; settings: phenylbutazone 3-4 mg/kg BID PO, gabapentin 20 mg/kg BID PO
sEH = molecular target: T2, sEH (Homo sapiens, UniProt P34913); experiment: Activity as inhibitor of sEH (general statements); format: biochemical
T2 sequence (P34913 1-555): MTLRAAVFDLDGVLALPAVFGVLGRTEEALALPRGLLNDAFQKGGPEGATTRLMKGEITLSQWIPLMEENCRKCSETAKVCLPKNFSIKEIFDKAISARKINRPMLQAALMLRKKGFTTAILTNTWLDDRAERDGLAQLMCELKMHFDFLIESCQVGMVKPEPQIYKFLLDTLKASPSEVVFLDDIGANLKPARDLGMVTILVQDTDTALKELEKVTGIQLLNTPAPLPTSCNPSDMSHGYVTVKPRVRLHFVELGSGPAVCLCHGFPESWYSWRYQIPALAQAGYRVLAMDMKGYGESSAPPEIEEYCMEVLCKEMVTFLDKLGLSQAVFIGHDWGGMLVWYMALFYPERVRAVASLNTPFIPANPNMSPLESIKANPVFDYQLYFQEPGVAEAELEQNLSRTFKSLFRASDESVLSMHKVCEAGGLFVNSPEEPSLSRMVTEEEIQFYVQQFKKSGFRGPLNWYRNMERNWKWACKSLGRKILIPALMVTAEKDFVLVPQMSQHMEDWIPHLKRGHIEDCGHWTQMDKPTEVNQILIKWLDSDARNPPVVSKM
From the text: Derivatives of urea are transition state mimetics that form a preferred group of sEH inhibitors. […] Any particular urea derivative or other compound can be easily tested for its ability to inhibit sEH by standard assays, such as those discussed herein. The production and testing of urea and carbamate derivatives as sEH inhibitors is set forth in detail in, for example, Morisseau et al., Proc Natl Acad Sci (USA) 96:8849-8854 (1999).
One category of these inhibitors comprises inhibitors that mimic the substrate for the enzyme. The lipid alkoxides (e.g., the 9-methoxide of stearic acid) are an exemplar of this group of inhibitors.

Chain of Sheep sEH (A0ACI6PZ20 entry or part of it): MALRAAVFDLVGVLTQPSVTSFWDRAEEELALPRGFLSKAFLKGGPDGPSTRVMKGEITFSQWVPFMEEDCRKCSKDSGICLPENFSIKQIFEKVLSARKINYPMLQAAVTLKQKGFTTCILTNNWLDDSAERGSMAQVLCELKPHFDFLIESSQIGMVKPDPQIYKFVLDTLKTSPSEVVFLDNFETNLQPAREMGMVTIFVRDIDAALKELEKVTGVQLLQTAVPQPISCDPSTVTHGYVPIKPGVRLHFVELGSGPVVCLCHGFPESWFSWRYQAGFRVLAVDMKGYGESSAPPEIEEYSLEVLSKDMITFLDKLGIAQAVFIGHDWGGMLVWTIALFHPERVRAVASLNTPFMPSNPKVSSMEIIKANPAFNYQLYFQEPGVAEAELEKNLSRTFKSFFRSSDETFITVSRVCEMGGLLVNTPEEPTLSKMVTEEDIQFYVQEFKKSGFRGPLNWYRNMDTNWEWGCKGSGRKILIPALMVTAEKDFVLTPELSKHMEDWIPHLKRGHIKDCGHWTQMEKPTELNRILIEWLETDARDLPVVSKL

Q: Which IC50 (Sheep sEH) does the source give for `CCS(=O)(=O)N1CCC(NC(=O)Nc2ccc(OC(F)(F)F)cc2)CC1` [compound 2213, 1-(1-ethylsulfonyl-piperidin-4-yl)-3-(4-trifluoromethoxy-phenyl)-urea] here?
A: 33 nM

Q: For `O=C(Nc1ccc(OC(F)(F)F)cc1)N[C@H]1CC[C@H](Oc2ccc(-c3nnn[nH]3)cc2)CC1` [compound 2806, 1-(trans-4-(4-(1H-tetrazol-5-yl)-phenoxy)-cyclohexyl)-3-(4-(trifluoromethoxy)-phenyl)-urea], which IC50 (Canine sEH) is on record?
A: < 1 nM

Q: With `CC(=O)Oc1ccccc1C(=O)O` [Aspirin] as the compound, how does the “COX-2 (IC50)/COX-1 (IC50) ratio” value (COX-1 and COX-2) read?
A: 0.32

Q: With `O=C(Nc1ccc(OC(F)(F)F)cc1)N[C@H]1CC[C@H](Oc2ccc(C(=O)O)cc2)CC1` [compound 1728, trans-4-{4-[3-(4-Trifluoromethoxy-phenyl)-ureido]-cyclohexyloxy}-benzoic acid] as the compound, how does the “daily plasma concentration, peak (did not reach)” value [1] read?
A: < 2.5 µM

Q: And the “daily plasma concentration, trough (fell below on one occasion in the first day)” value [1]?
A: below 30 nM

Q: What about the “adverse effects in clinical exams and blood work” value [2] of the same compound?
A: No adverse effects were observed

Q: With `NCC1(CC(=O)O)CCCCC1` [gabapentin] as the compound, how does the “highest measured plasma concentration” value [3] read?
A: 18 µM

Q: For `O=C(Nc1ccc(OC(F)(F)F)cc1)NC1CCN(C(=O)C2CC2)CC1` [compound 2214, 1-(1-(cyclopropanecarbonyl)piperidin-4-yl)-3-(4-(trifluoromethoxy)phenyl)urea], which IC50 (Sheep sEH) is on record?
A: 18 nM

Q: For `CS(=O)(=O)N1CCC(NC(=O)Nc2ccc(OC(F)(F)F)cc2)CC1` [compound 1709, 1-(1-methylsulfonyl-piperidin-4-yl)-3-(4-trifluoromethoxy-phenyl)-urea], which IC50 (Sheep sEH) is on record?
A: 30 nM

Q: For `CS(=O)(=O)NC(=O)c1ccc(O[C@H]2CC[C@H](NC(=O)Nc3ccc(OC(F)(F)F)cc3)CC2)cc1` [compound 2728, N-(methylsulfonyl)-4-(trans-4-(3-(4-trifluoromethoxy-phenyl)-ureido)-cyclohexyloxy)-benzamide], which IC50 (Canine sEH) is on record?
A: 100 nM

Q: With `O=C(Nc1ccccc1F)N[C@H]1CC[C@H](Oc2ccc(C(=O)O)cc2)CC1` [compound 2736, 4-(trans-4-(3-(2-fluorophenyl)-ureido)-cyclohexyloxy)-benzoic acid] as the compound, how does the IC50 (Canine sEH) read?
A: 39 nM

Q: With `Cc1oc(=O)oc1COC(=O)c1ccc(O[C@H]2CC[C@H](NC(=O)Nc3ccc(OC(F)(F)F)cc3)CC2)cc1` [compound 2796, (5-methyl-2-oxo-1,3-dioxol-4-yl)methyl 4-((1r,4r)-4-(3-(4-(trifluoromethoxy)-phenyl)-ureido)-cyclohexyloxy)-benzoate] as the compound, how does the IC50 (Canine sEH) read?
A: 38 nM

Q: Which IC50 (Canine sEH) does the source give for `O=C(Nc1ccc(OC(F)F)cc1)N[C@H]1CC[C@H](Oc2ccc(C(=O)O)cc2)CC1` [compound 2805, 4-(trans-4-(3-(4-(difluoromethoxy)-phenyl)-ureido)-cyclohexyloxy)-benzoic acid] here?
A: 19 nM

Q: For `O=C(Nc1ccc(OC(F)(F)F)cc1)Nc1ccc(Oc2ccc(C(=O)O)cc2)cc1F` [compound 2807, 4-(3-fluoro-4-(3-(4-(trifluoromethoxy)-phenyl)-ureido)-phenoxy)-benzoic acid], which IC50 (Canine sEH) is on record?
A: 14 nM

Q: For `CCCCCCCCCCCCNC(=O)NC12CC3CC(CC(C3)C1)C2` [ADU, N-Adamantyl-N′-dodecyl urea], which “activity on sEH” value (sEH) is on record?
A: particularly high activity on sEH

Q: For `COc1ccc2c(c1)c(CC(=O)O)c(C)n2C(=O)c1ccc(Cl)cc1` [indomethacin], which “COX-2 (IC50)/COX-1 (IC50) ratio” value (COX-1 and COX-2) is on record?
A: 33

Q: With `O=C(Nc1ccc(Oc2ccc(C(=O)O)cc2)cc1)Nc1ccc(OC(F)(F)F)cc1` [compound 2803, 4-(4-(3-(4-(trifluoromethoxy)-phenyl)-ureido)-phenoxy)-benzoic acid] as the compound, how does the IC50 (Canine sEH) read?
A: 42 nM
